Assay results from PubChem BioAssay (NCI).
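Grown in 96-well plates, cells were treated for 48 hours with each compound at five concentrations. Insufficient inhibition: endpoint recorded as highest concentration tested. At the TGI there is no net growth.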

How the values were obtained:
Assay in all cases: NCI tumour cell line growth inhibition, 48 h
[1] = system: M14 melanoma
[2] = system: NCI-H522 lung
[3] = system: LOX IMVI melanoma
[4] = system: SR leukemia
[5] = system: SF-539 CNS
[6] = system: NCI-H226 lung
[7] = system: SNB-19 CNS
[8] = system: OVCAR-3 ovarian
[9] = system: HOP-92 NSCLC
[10] = system: SF-295 CNS
[11] = system: RPMI-8226 leukemia
[12] = system: TK-10 renal
[13] = system: SNB-75 CNS
[14] = system: MOLT-4 leukemia
[15] = system: SW-620 colon
[16] = system: EKVX NSCLC
[17] = system: DLD-1 colon
[18] = system: CCRF-CEM leukemia
[19] = system: HCT-15 colon
[20] = system: KM12 colon
[21] = system: XF 498 CNS
[22] = system: SNB-78 CNS
[23] = system: UACC-62 melanoma
[24] = system: KM20L2 colon
[25] = system: UACC-257 melanoma
[26] = system: HL-60(TB) leukemia
[27] = system: M19-MEL melanoma
[28] = system: IGROV1 ovarian
[29] = system: DMS 273 small cell lung
[30] = system: HCT-116 colon
[31] = system: U251 CNS
[32] = system: CAKI-1 renal
[33] = system: K-562 leukemia
[34] = system: UO-31 renal
[35] = system: SK-OV-3 ovarian
[36] = system: LXFL 529 NSCLC
[37] = system: A549 NSCLC
[38] = system: RXF-631 renal
[39] = system: SF-268 CNS
[40] = system: ACHN renal
[41] = system: SK-MEL-2 melanoma
[42] = system: 786-0 renal
[43] = system: MALME-3M melanoma
[44] = system: SK-MEL-28 melanoma
[45] = system: SN12C renal
[46] = system: NCI-H23 lung
[47] = system: NCI-H460 lung
[48] = system: HT29 colon
[49] = system: COLO 205 colon
[50] = system: HOP-62 NSCLC
[51] = system: OVCAR-8 ovarian
[52] = system: OVCAR-4 ovarian
[53] = system: HCC-2998 colon
[54] = system: OVCAR-5 ovarian
[55] = system: A498 renal
[56] = system: DMS 114 small cell lung
[57] = system: RXF 393 renal
[58] = system: HOP-18 NSCLC
[59] = system: SK-MEL-5 melanoma

Measured: TGI

CC(C)c1ccccc1NC(=O)CCC(=O)NN
not listed: [47] | [48] | [49] | [50] | [51] | [52] | [53] | [54] | [55] | [56] | [57] | [58] | [59]
> 100 µM: all other assays above

Clc1ccc(OCc2nnc3n2N=C(c2ccccc2)CS3)cc1
35.1 µM: [37]
23.3 µM: [30]
29.5 µM: [4]
30.4 µM: [26]
30.8 µM: [3] | [49]
29.8 µM: [48]
44 µM: [17]
27.3 µM: [51]
29.3 µM: [25]
30.5 µM: [47] | [29]
34.8 µM: [50]
31.6 µM: [20]
42.8 µM: [33]
33.1 µM: [27]
46.3 µM: [7]
34.5 µM: [43]
38.2 µM: [44]
30.9 µM: [21]
37.5 µM: [40]
61.8 µM: [32]
62.5 µM: [14]
36.7 µM: [9] | [10]
31.9 µM: [31]
34.4 µM: [41]
36.1 µM: [54]
23.5 µM: [28]
30.6 µM: [24] | [52]
25.8 µM: [45]
28.4 µM: [23]
31.1 µM: [38]
32.4 µM: [8]
85.7 µM: [13]
33.3 µM: [5]
36.5 µM: [2]
40.7 µM: [36]
32.1 µM: [53]
32.9 µM: [15]
53.4 µM: [12]
20.8 µM: [34]
31 µM: [19]
25.2 µM: [46]
44.7 µM: [35]
41 µM: [1]
32.7 µM: [11]
30.2 µM: [42]
39.9 µM: [6] | [39]

Cn1ccnc1CCc1ccc(Cl)cc1Cl
not listed: [4] | [21] | [59]
> 100 µM: all other assays above

Nc1ncnc2c1ncn2C1OC(CSC(F)F)C(O)C1O (configuration not stated)
not listed: [4] | [7] | [21] | [27] | [57]
> 100 µM: all other assays above

COC(=O)C1CC2c3c(c4ccccc4n3C)CC(C1=O)N2C (configuration not stated)
32.5 µM: [49]
34.8 µM: [2]
92.8 µM: [30]
69 µM: [34]
43.6 µM: [29]
87.6 µM: [4]
60.7 µM: [56]
50.7 µM: [19]
68.5 µM: [26]
not listed: [11] | [21] | [50] | [57]
> 100 µM: all other assays above
